Experiments:
Type in all cases: in vivo
[1] = system: blood concentration of total nitric oxides (NOx); test: Blood total nitric oxides (NOx) level in Beagle dogs after 11-day oral administration, NO3- + NO2- by HPLC; conditions: male Beagle dogs, oral once daily, relative to pre-treatment average = 100, mean of 5 dogs
From the text: Simvastatin and atorvastatin synthesized at Chemtech Labo., Inc. were used. Gamma-oryzanol was purchased from Riken Vitamin Co., Ltd. and used. Benfotiamine manufactured at Sankyo Co., Ltd. was used.
Male Beagle dogs of 5 months of age were purchased from Covance Research Products Inc. as the test animals and were used after accommodation breeding for approximately 5 months.
The required amount of the test substance calculated based on the body weight of the test animals was weighed and filled in gelatin capsules (TORPAC Inc., 1/2 oz). After filling up, the capsules were placed in a box divided up for every animal and stored under freezing until use.
The capsules filled up with the test substance were orally administered to the test animals once daily via an oral gavage between 9:00-12:30. The test animals were fasted for 2-3 hrs prior to each administration. The administration period was 11 days.
Approximately 10 mL of blood was collected from the cephalic vein of each dog on—14 and—7 day (the 1st and the 2nd week prior to administration) as well as 4, 8, and 12 days after administration. The animals were fasted for approximately 18 hrs before collection of the blood.
The collected blood was placed in a test tube and allowed to stand at room temperature for 30 min to 1 hour. Then the blood was centrifuged (approximately 1,600 g, for 10 min) and the resultant serum obtained was used for assays.
Nitric oxide synthesized by nitric oxide synthase (NOS) is rapidly converted to nitrate ion (NO3^−) and nitrite ion (NO2^−). Blood concentration of total nitric oxides (NOx) is represented by the sum of NO3^− and NO2^− assayed by HPLC.
Relative values of blood concentration of total nitric oxides (NOx) in animals treated with each dose of simvastatin or atorvastatin calcium, gamma-oryzanol, and benfotiamine alone as well as their medicinal compositions as described above were calculated against each converted average value calculated from that determined 2 weeks and one week before treatment into 100.

[2] = Atherosclerosis index (LDL/HDL) in Beagle dogs after 11-day oral administration; conditions: male Beagle dogs, oral once daily, relative to pre-treatment average = 100, mean of 5 dogs, mg/Kg: gamma-oryzanol 100, simvastatin 1
From the text: (§1) Simvastatin and atorvastatin synthesized at Chemtech Labo., Inc. were used. Gamma-oryzanol was purchased from Riken Vitamin Co., Ltd. and used. Benfotiamine manufactured at Sankyo Co., Ltd. was used. Male Beagle dogs of 5 months of age were purchased from Covance Research Products Inc. as the test animals and were used after accommodation breeding for approximately 5 months. The required amount of the test substance calculated based on the body weight of the test animals was weighed and filled in gelatin capsules (TORPAC Inc., 1/2 oz). After filling up, the capsules were placed in a box divided up for every animal and stored under freezing until use. The capsules filled up with the test substance were orally administered to the test animals once daily via an oral gavage between 9:00-12:30. The test animals were fasted for 2-3 hrs prior to each administration. The administration period was 11 days. […] The animals were fasted for approximately 18 hrs before collection of the blood. […] In addition, total cholesterol content was assayed by enzymatic assay method while HDL, LDL, and triglyceride were determined by homogeneous method, chemically modified method, and enzymatic techniques, respectively. ALP was assayed by Bessey-Lowry method. Clinical Laboratory System (TBA-120FR, Toshiba Medical Systems Corporation) was used in all of these determinations. […] The values indicate average results calculated from 5 dogs per group.

[3] = Blood total cholesterol level in Beagle dogs after 11-day oral administration, enzymatic assay; conditions: male Beagle dogs, oral once daily, relative to pre-treatment average = 100, mean of 5 dogs, mg/Kg: gamma-oryzanol 100, simvastatin 1
From the text: as §1

[4] = Blood LDL level in Beagle dogs after 11-day oral administration; conditions: male Beagle dogs, oral once daily, relative to pre-treatment average = 100, mean of 5 dogs, mg/Kg: gamma-oryzanol 100, simvastatin 1
From the text: as §1

[5] = 4 Days after treatment, mg/Kg: benfotiamine 50, simvastatin 1, atorvastatin calcium 2
[6] = 8 Days after treatment, mg/Kg: benfotiamine 50, simvastatin 1, atorvastatin calcium 2
[7] = 12 Days after treatment, mg/Kg: benfotiamine 50, simvastatin 1, atorvastatin calcium 2

CC(C)c1c(C(=O)Nc2ccccc2)c(-c2ccccc2)c(-c2ccc(F)cc2)n1CC[C@H](O)C[C@@H](O)CC(=O)O [Atorvastatin calcium, (3R,5S)-7-[2-(4-fluorophenyl)-5-(1-methylethyl)-3-phenyl-4-phenylaminocarbonyl-1H-pyrrol-1-yl]-3,5-dihydroxyheptanoic acid]
Changes in blood NOx levels (%) [1, 5]: 117.7%
Changes in blood NOx levels (%) [1, 6]: 114.1%
Changes in blood NOx levels (%) [1, 7]: 117.9%

C/C(=C(\CCOP(=O)(O)O)SC(=O)c1ccccc1)N(C=O)Cc1cnc(C)nc1N [Benfotiamine]
Changes in blood NOx levels (%) [1, 5]: 96.4%
Changes in blood NOx levels (%) [1, 6]: 91.6%
Changes in blood NOx levels (%) [1, 7]: 107.1%

CCC(C)(C)C(=O)O[C@H]1C[C@@H](C)C=C2C=C[C@H](C)[C@H](CC[C@@H]3C[C@@H](O)CC(=O)O3)[C@H]21 [Simvastatin, (+)-(1S,3R,7S,8S,8aR)-1,2,3,7,8,8a-hexahydro-3,7-dimethyl-8-[2-[ (2R,4R)-tetrahydro-4-hydroxy-6-oxo-2H-pyran-2-yl]ethyl]-1-naphthyl 2,2-dimethylbutyrate]
Changes in atherosclerosis index (LDL/HDL) (%) ([2]; 4 Days after treatment): 86.6%
Changes in atherosclerosis index (LDL/HDL) (%) ([2]; 8 Days after treatment): 93.8%
Changes in atherosclerosis index (LDL/HDL) (%) ([2]; 12 Days after treatment): 86.3%
Changes in blood total cholesterol levels (%) ([3]; 4 Days after treatment): 94.8%
Changes in blood total cholesterol levels (%) ([3]; 8 Days after treatment): 94.1%
Changes in blood total cholesterol levels (%) ([3]; 12 Days after treatment): 92.4%
Changes in blood NOx levels (%) [1, 5]: 101.6%
Changes in blood NOx levels (%) ([1]; 4 Days after treatment, mg/Kg: gamma-oryzanol 100, simvastatin 1): 101.6%
Changes in blood NOx levels (%) [1, 6]: 85.5%
Changes in blood NOx levels (%) ([1]; 8 Days after treatment, mg/Kg: gamma-oryzanol 100, simvastatin 1): 85.5%
Changes in blood NOx levels (%) [1, 7]: 121.9%
Changes in blood NOx levels (%) ([1]; 12 Days after treatment, mg/Kg: gamma-oryzanol 100, simvastatin 1): 121.9%
Changes in blood LDL levels (%) ([4]; 4 Days after treatment): 83.9%
Changes in blood LDL levels (%) ([4]; 8 Days after treatment): 90.4%
Changes in blood LDL levels (%) ([4]; 12 Days after treatment): 81.3%
